Measured values from patent US5032594A, “Tricyclic fused pyrimidine derivatives, their production and use” (Takeda Chemical Industries, Ltd., priority 1989, dated 1991).
Like-named read-outs stand apart in the source and are kept apart here.

Tests used:
[1] = tested on: Retention deficit induced by scopolamine; experiment: Passive avoidance task, retention deficit induced by scopolamine; type: in vivo, mice; settings: scopolamine 1 mg/kg i.p.; for recovery of memory: orally administered 5% gum arabic suspension, in words; for Avoidance Time (%): p.o., 3 mg/kg, percent change rate relative to control (100), P < 0.05
Description: Actions of the compound (8) obtained in Working Example 8 and the compound (9) obtained in Working Example 9 on amelioration of memory impairment was studied using the passive avoidance task shown below. Five-week old male mice were placed first in the light chamber of a passive avoidance learning apparatus consisting of light and dark chambers. The mice immediately moved into the dark chamber, then an unescapable electric shock (0.5 mA, 3 sec.) was applied to the animals. These animals retained for several weeks the memory that they received the electric shock. This memory retention was disrupted by the following procedure, and the effect of the compounds (8) and (9) was tested. Thirty minutes prior to the application of electric shock, these animals were each administered with scopolamine (1 mg/kg, i.p), then these mice lost the memory of this experience of an electric shock.
On the following day, a retention recovery test was conducted. These mice were again placed in the light chamber of the passive avoidance apparatus and the time until the animals moved into the dark chamber (avoidance time) was measured. These mice which lost the memory of the experience of an electric shock moved again into the dark chamber in 10 to 20 seconds. […] The effects of these test compounds were examined by comparing the average value (11-15 animals/group) of the period of time during which the mice stayed in the light chamber with that of the control group (administered only a suspension of 5% gum arabic containing no test compound). The results were expressed by the percent change rate relative to the mean value (100) in the control group (Table 5).

[2] = biological target: T1, A1 receptor (Rattus norvegicus, UniProt P25099); experiment: A1 receptor antagonism (inhibition of 3H-cyclohexyladenosine binding, rat cerebral cortex membranes)
T1 construct: a rat was decapitated, and the cerebral cortex (A1 receptor); from tissue; host or cells: rat cerebral cortex membranes
T1 sequence (P25099 1-326): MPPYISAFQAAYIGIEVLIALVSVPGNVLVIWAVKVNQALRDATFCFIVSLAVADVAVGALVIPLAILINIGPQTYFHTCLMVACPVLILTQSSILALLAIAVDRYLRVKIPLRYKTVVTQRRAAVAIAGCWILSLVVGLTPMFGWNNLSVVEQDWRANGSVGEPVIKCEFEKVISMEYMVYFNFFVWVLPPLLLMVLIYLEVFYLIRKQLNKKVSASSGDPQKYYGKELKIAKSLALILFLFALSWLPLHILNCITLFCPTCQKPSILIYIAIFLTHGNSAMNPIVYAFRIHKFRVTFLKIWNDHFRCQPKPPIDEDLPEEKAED
Experimental: (§1) Preparation of membranes was performed in accordance with the method of Burns et al. described in Proc. Natl. Acad. Sci., 77, 5547 (1980). More specifically, a rat was decapitated, and the cerebral cortex (A1 receptor) or corpus striatun (A2 receptor) was suspended using Polyton in a Tris-HCl buffer solution of pH 7.7 (50 mM, 20 ml). This suspension was centrifuged at 48,000 g for 10 minutes, and the pellet was resuspended and centrifuged in a similar manner. The pellet was resuspended in a Tris-HCl buffer solution (50 mM), to which was added adenosine deaminase (2U/ml). The mixture was incubated at 37° C. for 30 minutes. This suspension was centrifuged and the pellet was stored at -20° C.
(§2) Using the above-mentioned pellet, adenosine antagonism (A1 and A2) was examined.
The above-mentioned pellet was thawed at room temperature and suspended in a Tris-HCl buffer solution. To the suspension (0.9 ml) were added ^3 H-cyclohexyladenosine (^3 H-CHA)(ca. 0.05 μCi, 0.1 ml) and the test drug (10 μl), and the mixture was incubated at 25° C. for 60 minutes. The reaction mixture was subjected to filtration with GF/B filter. The filter was washed four times with a Tris-HCl buffer solution. The radioactivity on the filter was measured by liquid scintillation. The nonspecific binding amount was measured in the presence of 10^-5 M of L-phenyl isopropyladenosine.

[3] = biological target: T2, A2 receptor (Rattus norvegicus, UniProt P30543); experiment: A2 receptor antagonism (inhibition of 3H-NECA binding, rat corpus striatum membranes); settings: in presence of 50 nM cyclopentyladenosine, read-out: A2 receptor (Ki, μM), binding-inhibition constant
T2 construct: corpus striatun (A2 receptor); from tissue; host or cells: rat corpus striatum membranes
Experimental: as §1, §2
The experiment was performed analogously to that for A1 receptor antagonism. Using ^3 H-adenosine-5'-ethylcarboxamide (^3 H-NECA; about 0.1 μCi) as ligand, the experiment was conducted in the presence of 50 nM of cyclopentyladenosine. The nonspecific binding amount was measured in the presence of 10^-4 M of cyclopentyladenosine.

[4] = tested on: impaired learning after cerebral ischemia; experiment: Passive avoidance learning impaired after cerebral ischemia; type: in vivo, Wistar rats
Experimental: As in the case of the above test (3-1), Wistar rats were used to produce an experimental model for cerebral ischemia. In this experiment, the time during which cerebral ischemia was caused in the animals was 5 minutes. By this treatment, a passive avoidance learning impairments was induced. The passive avoidance learning was tested in accordance with the method in Experiment 1. The test compound was suspended in a 5% gum arabic vehicle. Test animals were administered with this suspension three times, i.e. one hour prior to causing cerebral ischemia, two hours prior to a passive avoidance learning and two hours prior to the test. The control group was administered with only a 5% gum arabic suspension.

[5] = tested on: motility depression (depression of consciousness level) associated with cerebral ischemia; experiment: Recovery of motility after experimental cerebral ischemia; type: in vivo, Wistar rats; settings: for Time to reappearance of spontaneous motility: control 81.5 ± 13.3
Description: Experimental cerebral ischemia was produced in accordance with the method of Pulsinelli et al. (Stroke 10, 267-272, 1979), using Wistar rats 8-week old. On the first day of the experiment, the rats were anesthetized with pentobarbital, and their occipital skin and muscle were incised along the median line, then their vertebral arteries were cauterized bilaterally, and their ventral necks were incised, the bilateral common carotid arteries were separated from the surrounding tissue, to which a thread was applied. On the next day, the common carotid arteries were drawn out by the use of this thread under anaesthetic conditions, and occluded with clips for 30 minutes. By this treatment, serious cerebral ischemia was induced. After 30 minutes' occlusion, the clip was removed to allow the cerebral circulation to resume. Time to recovery of righting reflex and time to reappearance of spontaneous motor activity were measured on individual test animals. The test compound was orally administered to the animals as a 5% suspension in gum arabic one hour before causing the cerebral ischemia and immediately after the resumption of cerebral circulation. The control group was orally administered with only a 5% gum arabic suspension.

[6] = rat cerebral cortex, 3H-CHA, 25° C., 60 minutes, read-out: A1 receptor (Ki, μM), binding-inhibition constant

T2 sequence (P30543 whole entry): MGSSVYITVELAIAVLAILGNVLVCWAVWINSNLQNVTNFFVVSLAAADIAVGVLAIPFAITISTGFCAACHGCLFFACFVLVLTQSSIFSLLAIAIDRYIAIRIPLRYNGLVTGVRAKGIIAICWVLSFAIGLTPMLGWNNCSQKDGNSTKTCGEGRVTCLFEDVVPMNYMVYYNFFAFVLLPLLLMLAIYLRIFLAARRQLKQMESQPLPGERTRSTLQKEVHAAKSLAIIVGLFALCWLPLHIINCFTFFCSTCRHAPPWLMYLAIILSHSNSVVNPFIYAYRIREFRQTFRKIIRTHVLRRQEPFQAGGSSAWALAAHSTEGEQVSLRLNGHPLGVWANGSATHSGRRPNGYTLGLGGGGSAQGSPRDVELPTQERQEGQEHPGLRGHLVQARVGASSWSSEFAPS

| Compound | Ki [2, 6] | Ki [3] | other results |
| --- | --- | --- | --- |
| CCCn1c(=O)c2c(nn3cc[nH]c23)n(Cc2ccc(Cl)cc2)c1=O [Working Example 9] | – | – | recovery of memory [1]: recovered the memory |
| CCCn1c(=O)c2c3n(nc2n(Cc2cccc(Cl)c2)c1=O)CCN3 [compound 3] | 0.19 µM | 4.2 µM | – |
| CCCn1c(=O)c2c(nn3cc[nH]c23)n(Cc2ccc(Cl)cc2)c1=O [compound 9] | 0.05 µM | 0.37 µM | Avoidance Time (%) [1]: 262% |
| CCCn1c(=O)c2c3n(nc2n(Cc2ccc(Cl)cc2)c1=O)CCN3 [compound 2] | 0.14 µM | 2.9 µM | – |
| CCCn1c(=O)c2c3n(nc2n(Cc2ccccc2Cl)c1=O)CCN3 [compound 4] | 0.27 µM | 6.5 µM | – |
| CCCn1c(=O)c2c(nn3cc[nH]c23)n(Cc2ccccc2Cl)c1=O [compound 11] | 0.092 µM | 1 µM | – |
| CCCCn1c(=O)[nH]c(=O)c2c3n(nc21)CCN3 [compound 29] | 18 µM | 39 µM | – |
| CCCn1c(=O)c2c(nn3cc[nH]c23)n(CCCc2ccccc2)c1=O [compound 14] | 0.11 µM | 2.5 µM | – |
| CCCCn1c(=O)n(Cc2ccccc2)c(=O)c2c3n(nc21)CCN3 [compound 5] | 0.67 µM | 4.5 µM | – |
| CCCn1c(=O)c2c(nn3cc[nH]c23)n(Cc2cccc(Cl)c2)c1=O [compound 10] | 0.098 µM | 0.46 µM | – |
| CCCn1c(=O)[nH]c2nn3cc[nH]c3c2c1=O [compound 30] | – | 0.42 µM | Ki [2]: 0.42 µM |
| CCCn1c(=O)c2c(nn3cc[nH]c23)n(Cc2ccccc2)c1=O [Working Example 8, 1-Benzyl-3-propyl-1,2,3,4-tetrahydro-5H-imidazo[2',1':5,1]pyrazolo[3,4-d]pyrimidine-2,4-dione] | – | – | recovery of memory [1]: recovered the memory; Avoidance time ([4]; 3 mg/kg and 10 mg/kg, in words): prolonged the avoidance time, in the doses of 3 mg/kg and 10 mg/kg, dose-dependently; Avoidance time ([4]; 3 mg/kg, 5 minutes ischemia, median, control 17.5): 152.8 s; Avoidance time ([4]; 10 mg/kg, 5 minutes ischemia, median, control 17.5, P < 0.05): 285.9 s; Time to recovery of righting reflex ([5]; 3 mg/kg oral, 30 minutes occlusion, average ± standard error, control 29.8 ± 5.9): 21.0 ± 3.2 min; Time to reappearance of spontaneous motility ([5]; 3 mg/kg oral, 30 minutes occlusion, average ± standard error): 55.2 ± 6.5 min; Time to recovery of righting reflex ([5]; 10 mg/kg oral, 30 minutes occlusion, average ± standard error, control 29.8 ± 5.9): 16.7 ± 2.6 min; Time to reappearance of spontaneous motility ([5]; 10 mg/kg oral, 30 minutes occlusion, average ± standard error, P < 0.05): 43.8 ± 4.7 min; Time to recovery of righting reflex ([5]; in words): tended to shorten the time to recovery of righting reflex dosedependently; time to reappearance of spontaneous motor activity ([5]; in words): shortened the time to reappearance of spontaneous motor activity |

The next lines start with results.

| Ki [2, 6] | Ki [3] | Compound | other results |
| --- | --- | --- | --- |
| 0.58 µM | > 0.5 µM | CCCn1c(=O)c2c(nn3cc(-c4ccccc4Cl)[nH]c23)n(Cc2ccccc2)c1=O [compound 27] | – |
| 0.024 µM | 0.43 µM | CCCn1c(=O)c2c(nn3c(C)c(C)[nH]c23)n(Cc2ccccc2)c1=O [compound 16] | – |
| 0.58 µM | > 0.5 µM | CCCn1c(=O)c2c(nn3cc(-c4ccc(C)cc4)[nH]c23)n(Cc2ccccc2)c1=O [compound 25] | – |
| 0.037 µM | > 0.5 µM | CCCn1c(=O)c2c(nn3cc(-c4cccc(Cl)c4)[nH]c23)n(Cc2ccccc2)c1=O [compound 26] | – |
| 0.0069 µM | 0.12 µM | CCCn1c(=O)c2c(nn3cc(-c4cccc(OC)c4)[nH]c23)n(Cc2ccccc2)c1=O [compound 21] | – |
| 0.01 µM | 0.28 µM | CCCn1c(=O)c2c(nn3cc(-c4ccccc4)[nH]c23)n(Cc2ccccc2)c1=O [compound 15] | – |
| 0.53 µM | 0.5 µM | CCCn1c(=O)c2c(nn3cc(-c4ccccc4OC)[nH]c23)n(Cc2ccccc2)c1=O [compound 23] | – |
| 0.53 µM | 16 µM | CCCn1c(=O)c2c(nn3cc[nH]c23)n(CCc2ccccc2)c1=O [compound 13] | – |
| 0.053 µM | > 0.5 µM | CCCCOc1ccc(-c2cn3nc4c(c(=O)n(CCC)c(=O)n4Cc4ccccc4)c3[nH]2)cc1 [compound 24] | – |
| 0.0047 µM | 0.21 µM | CCCn1c(=O)c2c(nn3cc(-c4ccc(OC)cc4)[nH]c23)n(Cc2ccccc2)c1=O [compound 22] | – |
| 0.2 µM | 1.1 µM | CCCCn1c(=O)n(Cc2ccccc2)c(=O)c2c1nn1cc[nH]c21 [compound 12] | – |
| 0.027 µM | 0.19 µM | CCCn1c(=O)c2c(nn3c4c([nH]c23)CCCC4)n(Cc2ccccc2)c1=O [compound 19] | – |
| 0.0051 µM | 0.35 µM | CCCCc1cn2nc3c(c(=O)n(CCC)c(=O)n3Cc3ccccc3)c2[nH]1 [compound 17] | – |
| 0.034 µM | 0.26 µM | CCCn1c(=O)c2c(nn3cc[nH]c23)n(Cc2ccccc2)c1=O [compound 8] | Avoidance Time (%) [1]: 243% |
| 0.12 µM | 3.3 µM | CCCn1c(=O)c2c3n(nc2n(Cc2ccccc2)c1=O)CCN3 [compound 1] | – |
